The target of this assay is T1, recombinant human GST-SYK (Homo sapiens, UniProt P43405).
T1 construct: purchased Carna Biosciences 08-176
The assay can be described thus: Homogeneous Time-Resolved Fluorescence (HTRF) assay for the recombinant human Syk enzyme. It counts as biochemical. As to conditions: GST-hSYK 5 pM, ATP 25 μM. On the procedure:
Homogeneous Time-Resolved Fluorescence (HTRF) Assay for the Recombinant Human Syk Enzyme
A recombinant GST-hSYK fusion protein was used to measure potency of compounds to inhibit human Syk activity. The recombinant human GST-SYK (Carna Biosciences #08-176) (5 pM final concentration) was incubated with various concentrations of the inhibitor diluted in DMSO (0.1% final concentration) for 10 minutes at room temperature in 15 mM Tris-HCl (pH 7.5), 0.01% tween 20, 2 mM DTT in 384 well plate format. To initiate the reaction the biotinylated substrate peptide (250 nM final concentration) that contains the phosphorylation site for Syk was added with magnesium (5 mM final concentration) and ATP (25 μM final concentration). Final volume of the reaction was 10 μL. Phosphorylation of the peptide was allowed to proceed for 45′ at room temperature. To quench the reaction and detect the phosphorylated product, 2 nM of a Europium-anti-phosphotyrosine antibody (Perkin Elmer #AD0161) and 70 nM SA-APC (Perkin-Elmer #CR130-100) were added together in 15 mM Tris pH 7.5, 40 mM EDTA, 0.01% tween 20. Final volume of the quenching solution was 10 μL. The resulting HTRF signal was measured after 30 minutes on an EnVision (Perkin-Elmer) reader using a time-resolved fluorescence protocol.
In general terms: Time-resolved FRET reads energy transfer from a long-lived donor to a nearby acceptor.

The mark [1] stands for this setting: IC50 rated in classes, read-out: rhSYK Activity.

This is an account of results in patent US9416111B2, “Substituted diazine and triazine spleen tyrosine kinease (Syk) inhibitors” (Merck Sharp & Dohme Corp., priority 2012, dated 2016).

Where two headings read alike, the source gives them in different places. Bounds are passed on as bounds.

Take `COCC(Nc1ncc(-c2cc(C)cc(Nc3nccc(C(F)(F)F)n3)c2)cn1)C(=O)O` (racemic) [Example 2.38, O-methyl-N-[5-(3-methyl-5-{[4-(trifluoromethyl)pyrimidin-2-yl]amino}phenyl)pyrimidin-2-yl]serine]: the IC50 under setting [1] was less than 100 nM.
As to `Cc1cc(Nc2nccc(C(F)(F)F)n2)cc(-c2cnc(NC(CO)C(=O)O)nc2)c1` (racemic) [Example 2.41, N-[5-(3-methyl-5-{[4-(trifluoromethyl)pyrimidin-2-yl]amino}phenyl)pyrimidin-2-yl]serine], the IC50 under setting [1] was less than 100 nM.
On to `CNC(=O)C1CCCN1c1ncc(-c2cc(C)cc(Nc3nccc(C(F)(F)F)n3)c2)cn1` (racemic) [Example 2.70, N-methyl-1-[5-(3-methyl-5-{[4-(trifluoromethyl)pyrimidin-2-yl]amino}phenyl)pyrimidin-2-yl]prolinamide], for which the IC50 under setting [1] is less than 100 nM.
As to `Cc1cc(Nc2nccc(C(F)(F)F)n2)cc(-c2cnc(N3CCCC3C(N)=O)nc2)c1` (racemic) [Example 2.74, 1-[5-(3-methyl-5-{[4-(trifluoromethyl)pyrimidin-2-yl]amino}phenyl)pyrimidin-2-yl]prolinamide], under setting [1], the IC50 was less than 100 nM.
As to `Cc1cc(Nc2nccc(C(F)F)n2)cc(-c2cnc([C@@H](C)[C@H]3CC[C@H](C(=O)O)CC3)nc2)c1` (single isomer, unassigned) [Example 6.1, trans-4-{1-[5-(3-{[4-(difluoromethyl)pyrimidin-2-yl]amino}-5-methylphenyl)pyrimidin-2-yl]ethyl}cyclohexanecarboxylic acid], the IC50 under setting [1] was less than 100 nM and the IC50 (values in text, read-out: IC50) amounted to 0.6 nM.
The matching figures for `Cc1cc(Nc2nccc(C(F)F)n2)cc(-c2cnc([C@@H](C)[C@H]3CC[C@H](C(=O)O)CC3)nc2)c1` (single isomer, unassigned) [Example 6.2, trans-4-{1-[5-(3-{[4-(difluoromethyl)pyrimidin-2-yl]amino}-5-methylphenyl)pyrimidin-2-yl]ethyl}cyclohexanecarboxylic acid]: less than 100 nM and 0.3 nM.
On to `Cc1cc(Nc2nccc(C(F)F)n2)cc(-c2cnc([C@H](C)[C@H]3CC[C@H](C(=O)O)[C@H](C)C3)nc2)c1` (single isomer, unassigned) [Example 7.1], for which the IC50 under setting [1] is less than 100 nM.
For the molecule `Cc1cc(Nc2nccc(C(F)F)n2)cc(-c2cnc([C@H](C)[C@H]3CC[C@H](C(=O)O)[C@H](C)C3)nc2)c1` (single isomer, unassigned) [Example 7.2], the IC50 reads like this: under setting [1], less than 100 nM; (values in text, read-out: IC50) less than 0.5 nM.
As to `Cc1cc(Nc2nccc(C(F)F)n2)cc(-c2cnc([C@H](C)[C@H]3CC[C@H](C(=O)O)[C@H](C)C3)nc2)c1` (single isomer, unassigned) [Example 7.3], the IC50 under setting [1] is less than 100 nM.
On to `Cc1cc(Nc2nccc(C(F)F)n2)cc(-c2cnc([C@H](C)[C@H]3CC[C@H](C(=O)O)[C@H](C)C3)nc2)c1` (single isomer, unassigned) [Example 7.4], for which the IC50 is, setting by setting: under setting [1], less than 100 nM; (values in text, read-out: IC50) 0.8 nM.
As for `Cc1cc(Nc2nccc(C(F)F)n2)cc(-c2cnc([C@H](C)[C@H]3CC[C@H](C(=O)O)[C@H](C)C3)nc2)c1` (single isomer, unassigned) [Example 7.5], the IC50 runs as follows: under setting [1], less than 100 nM; (values in text, read-out: IC50) 0.8 nM.
Take `Cc1cc(Nc2nccc(C(F)F)n2)cc(-c2cnc([C@H](C)[C@H]3CC[C@H](C(=O)O)[C@H](C)C3)nc2)c1` (single isomer, unassigned) [Example 7.6]: the IC50 was less than 100 nM under setting [1] and 0.7 nM (values in text, read-out: IC50).
For `Cc1cc(Nc2nccc(C(F)F)n2)cc(-c2cnc([C@H](C)[C@H]3CC[C@H](C(=O)O)[C@H](C)C3)nc2)c1` (single isomer, unassigned) [Example 7.7], in that order: less than 100 nM and 1.2 nM.
As to `Cc1cc(Nc2nccc(C(F)F)n2)cc(-c2cnc([C@H](C)[C@H]3CC[C@H](C(=O)O)[C@H](C)C3)nc2)c1` (single isomer, unassigned) [Example 7.8], the IC50 under setting [1] was less than 100 nM.
